Results on 7 compounds are retold here after ChEMBL document CHEMBL4431301, “The Medicinal Chemistry of Dengue Virus” (J Med Chem, 2016).

Series [1] concerns dengue virus type 2. Briefly: Antiviral activity against Dengue virus 2 infected in human A549 cells assessed as decrease in viral envelope protein production after 48 hrs by CFI assay. Particulars: A549, 48 h. The series is classed as functional, organism-based.
The nature of series [2]: Selectivity index, ratio of CC50 for human A549 cells to EC50 for Dengue virus 2 infected in human A549 cells. It is filed as toxicity, cell-based. The following applies: read-out: Ratio CC50/EC50.
The subject of series [3] is dengue virus type 2. Briefly: Antiviral activity against Dengue virus 2 NGC infected in BHK21 cells assessed as reduction in viral titer after 3 days by RT-PCR method. Particulars: BHK-21, 72 h. The series is classed as functional, organism-based.
Series [4] is described as follows: Inhibition of envelope protein mediated membrane fusion in Dengue virus TSV01 infected in mosquito C6/36 cells after 1 hr by propidium iodide staining based fluorescence assay. It is filed as cell-based. The following applies: TSV01, C6/36, 1 h.
A short description of series [5]: Inhibition of envelope protein mediated membrane fusion in Dengue virus TSV01 infected in mosquito C6/36 cells assessed as trypsin degradation after 1 hr by SDS-PAGE method. The series is classed as cell-based. Particulars: TSV01, C6/36, 1 h.
Series [6] can be described thus: Cytotoxicity against BHK21 cells assessed as cell viability after 3 days by CellTiter Glo assay. It is filed as cell-based, Mesocricetus auratus, BHK-21. Particulars: hamster. A general note: Cellular ATP, detected with luciferase, serves as a proxy for viable cell number.
In series [7] the test system is dengue virus type 2. Briefly: Antiviral activity against Dengue virus 2 NGC infected in african green monkey Vero cells preincubated with virus for 5 mins followed by cell infection for 5 mins by immunofluorescence analysis. The series is classed as functional, organism-based.
Series [8] addresses DEN4V NS2B-G4SG4NS3 serine protease (Dengue virus type 4, UniProt P09866). Briefly: Non-competitive inhibition of Dengue virus 4 NS3 helicase.
Series [9] has as its target T1, Genome polyprotein (dengue virus type 2, UniProt P29990). Briefly: Inhibition of Dengue virus 2 Taiwanese PL046 NS2B-NS3 protease using Ac-TTSTRR-pNA as substrate preincubated for 10 mins followed by addition of substrate measured after 2 hrs.
Series [10] deals with T1, Genome polyprotein. Briefly: Inhibition of Dengue virus 2 NS2B-NS3 protease expressed in Escherichia coli BL21(DE3) using Boc-Gly-Arg-Arg-7-amino-4-methylcoumarin as substrate after 10 mins by fluorescence assay.
Series [11] relates to dengue virus type 2. Briefly: Antiviral activity against Dengue virus 2 infected in african green monkey Vero cells preincubated with cells followed by viral infection measured after 4 days by immunofluorescence staining based fluorescence microscope. The series is classed as functional, organism-based.
In series [12] the target is T1, Genome polyprotein. Briefly: Inhibition of Dengue virus 2 GFP/DsRed fused NS2B-NS3 protease co-transfected in HEK293T cells by Western blot analysis. The series is classed as cell-based.
For series [13], the target named is Genome polyprotein (dengue virus type 2) (UniProt P29990). Briefly: Inhibition of the Dengue virus 2 NS2B-NS3 protease using Bz-nKRR-AMC as substrate at 300 uM preincubated for 15 mins followed by substrate addition measured after 30 mins by fluorescence assay.
A short description of series [14]: Cytotoxicity against BHK21 cells assessed as cell viability after 48 hrs by Celltiter-Glo luminescent assay. The series is classed as cell-based, Mesocricetus auratus, BHK-21. The following applies: hamster.
Series [15] concerns dengue virus type 2. Briefly: Antiviral activity against Dengue virus 2 infected in human HuH7 cells after 48 hrs by CFI assay. The series is classed as functional, organism-based. The following applies: Huh-7, 48 h.
The nature of series [16]: Cytotoxicity against human HuH7 cells assessed as cell viability after 48 hrs by Celltiter-Glo luminescent assay. The series is classed as cell-based, Huh-7.
In series [17] the test system is dengue virus type 2. Briefly: Antiviral activity against Dengue virus 2 NGC infected in monkey LLC-MK2 cells preincubated with virus for 1 hr followed by cell infection for 1 hr by focus forming unit assay. The series is classed as functional, organism-based.

Where a SMILES comes first, the peptide text is derived from it.

One may read the EC50 as the concentration needed to bring the measured effect to its halfway point. Regarding `CC(=O)O[C@H]1[C@H]2c3cc4c(cc3CN3CCC(=C[C@@H]1O)[C@H]23)OCO4`, the EC50 with dengue virus type 2 [1] came out at 0.4 µM. The selectivity ratio in series [2] was > 750.
As a reminder, the IC50 is the concentration at which inhibition is half-maximal. For orientation: CC50 means the concentration at which the toxic effect on the cells reaches its halfway point. `O=C(O)c1cc(=O)c2ccc(S[C@@H](/C=C/C=C\CCOc3ccc(Cl)c(Cl)c3)[C@H](O)c3cccc(C(F)(F)F)c3)cc2o1`: the EC50 in the series with dengue virus type 2 [3] amounted to 9.8 µM. Also, the IC50 in [4] and in series [5] was 6.8 µM each time. For the same compound, the CC50 at 72 h in series [6] amounted to 48.7 µM.
What is called Ki is a measure of affinity in units of concentration, obtained from inhibition or displacement. `Cc1ccc(C(=O)Nc2ccc(S(=O)(=O)O)c3cc(S(=O)(=O)O)cc(S(=O)(=O)O)c23)cc1NC(=O)c1cccc(NC(=O)Nc2cccc(C(=O)Nc3cc(C(=O)Nc4ccc(S(=O)(=O)O)c5cc(S(=O)(=O)O)cc(S(=O)(=O)O)c45)ccc3C)c2)c1` [SURAMIN]: a half-maximal effect in the series with dengue virus type 2 [7] (EC50) was put at 40 µM. In [8], this compound gave a Ki of 0.75 µM.
Regarding `CCCCCCCCCCCCCCCC[N+](CC)(CO)CO`, on Genome polyprotein [9], half-maximal inhibition (IC50) was put at 22.6 µM.
Regarding `O=C(Nc1nc2cc(O)c(O)cc2s1)c1ccccc1Oc1ccc2cc(O)ccc2c1`, the IC50 is 4.2 µM against Genome polyprotein [10] and 3.2 µM on Genome polyprotein [12]. For the same compound, a half-maximal effect with dengue virus type 2 [11] (EC50) was put at 0.8 µM.
For orientation: inhibition means the percentage by which the read-out fell short of the control. Compound `Cc1cc(N2CCN(C)CC2)ccc1NC(=O)c1c2c(nc3ccccc13)CCN(Cc1ccccc1)C2` registered an inhibition in series [13] of 85%. Moreover, the half-maximal cytotoxic concentration (CC50) at 48 h in series [14] is > 300 µM; in series [16], 55 µM. For the same compound, the EC50 with dengue virus type 2 [15] came out at 5 µM.
Regarding `CC[C@H](C)[C@H](NC(=O)[C@H](CC(C)C)NC(=O)[C@@H](NC(=O)[C@H](Cc1ccccc1)NC(=O)[C@H](Cc1c[nH]c2ccccc12)NC(=O)[C@@H](N)Cc1ccccc1)[C@@H](C)O)C(=O)N[C@@H](CCCCN)C(=O)N[C@H](C(=O)N[C@@H](CCC(N)=O)C(=O)N[C@@H](C)C(=O)N[C@@H](CCCCN)C(=O)N[C@@H](CCC(N)=O)C(=O)N1CCC[C@H]1C(=O)N[C@@H](C)C(=O)N[C@@H](CCCNC(=N)N)C(=O)N[C@@H](Cc1ccc(O)cc1)C(=O)N[C@@H](CCCNC(=N)N)C(=O)N[C@@H](CCCNC(=N)N)C(=O)N[C@@H](Cc1ccccc1)C(=O)N[C@@H](CS)C(=O)O)[C@@H](C)O` (H-FWFTLIKTQAKQPARYRRFC-OH), the midpoint of inhibition with dengue virus type 2 [17], the IC50, lay at 7 µM.
